Measurements reported in ChEMBL document CHEMBL4732080, “Polypharmacological drug actions of recently FDA approved antibiotics” (Eur J Med Chem, 2021).
Converted amounts (≈) assume the structure as drawn.

Legend:
[1] = Terminal half life in human; type: ADME; settings: read-out: beta t1/2 (converted)
[2] = biological target: Albumin (Homo sapiens, UniProt P02768); test: Protein binding to human serum albumin; type: ADME, cell-free; settings: read-out: PB (converted)
[3] = Terminal half life in human at 10 mg/kg, administered as single dose measured over 2 hrs; type: ADME, organism-based; settings: in vivo, read-out: beta t1/2 (converted)
[4] = tested on: Staphylococcus aureus; test: Antibacterial activity against methicillin-resistant Staphylococcus aureus; type: functional

Chain of Albumin (P02768 whole entry): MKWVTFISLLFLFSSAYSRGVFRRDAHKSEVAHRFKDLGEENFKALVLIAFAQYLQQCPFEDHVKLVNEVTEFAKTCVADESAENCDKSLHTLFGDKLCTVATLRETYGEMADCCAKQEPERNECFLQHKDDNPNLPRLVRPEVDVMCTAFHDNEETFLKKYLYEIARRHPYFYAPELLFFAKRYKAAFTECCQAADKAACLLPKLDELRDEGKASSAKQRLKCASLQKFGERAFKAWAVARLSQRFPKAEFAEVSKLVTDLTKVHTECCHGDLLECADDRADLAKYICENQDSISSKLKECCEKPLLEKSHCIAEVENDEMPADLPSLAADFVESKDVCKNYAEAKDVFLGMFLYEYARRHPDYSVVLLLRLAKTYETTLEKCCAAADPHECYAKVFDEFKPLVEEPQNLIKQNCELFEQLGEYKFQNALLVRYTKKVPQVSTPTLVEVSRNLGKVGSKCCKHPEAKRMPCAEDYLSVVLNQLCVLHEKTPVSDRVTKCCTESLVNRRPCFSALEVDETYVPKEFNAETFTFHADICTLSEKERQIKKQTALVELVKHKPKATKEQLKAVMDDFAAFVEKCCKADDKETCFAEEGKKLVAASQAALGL

Row | half-life [3] | SMILES | half-life [1] | fraction unbound [2] | MIC50 [4]
1 |  | CN[C@H](CC(C)C)C(=O)N[C@H]1C(=O)N[C@@H](CC(N)=O)C(=O)N[C@H]2C(=O)N[C@H]3C(=O)N[C@H](C(=O)N[C@H](C(=O)O)c4cc(O)cc(O)c4-c4cc3ccc4O)[C@H](O[C@H]3C[C@](C)(N)[C@@H](O)[C@H](C)O3)c3ccc(c(Cl)c3)Oc3cc2cc(c3O[C@@H]2O[C@H](CO)[C@@H](O)[C@H](O)[C@H]2O[C@H]2C[C@](C)(NCc3ccc(-c4ccc(Cl)cc4)cc3)[C@@H](O)[C@H](C)O2)Oc2ccc(cc2Cl)[C@H]1O [ORITAVANCIN] | 195 h | 0.1 | 
2 | 7.5 h | CCCCCCCCCCNCCN[C@@]1(C)C[C@H](O[C@H]2[C@H](Oc3c4cc5cc3Oc3ccc(cc3Cl)[C@@H](O)[C@@H](NC(=O)[C@@H](CC(C)C)NC)C(=O)N[C@@H](CC(N)=O)C(=O)N[C@H]5C(=O)N[C@H]3C(=O)N[C@H](C(=O)N[C@H](C(=O)O)c5cc(O)c(CNCP(=O)(O)O)c(O)c5-c5cc3ccc5O)[C@H](O)c3ccc(c(Cl)c3)O4)O[C@H](CO)[C@@H](O)[C@@H]2O)O[C@@H](C)[C@H]1O [TELAVANCIN] |  | 0.07 | 
3 |  | CN[C@H](CC(C)C)C(=O)N[C@H]1C(=O)N[C@@H](CC(N)=O)C(=O)N[C@H]2C(=O)N[C@H]3C(=O)N[C@H](C(=O)N[C@H](C(=O)O)c4cc(O)cc(O)c4-c4cc3ccc4O)[C@H](O)c3ccc(c(Cl)c3)Oc3cc2cc(c3O[C@@H]2O[C@H](CO)[C@@H](O)[C@H](O)[C@H]2O[C@H]2C[C@](C)(N)[C@H](O)[C@H](C)O2)Oc2ccc(cc2Cl)[C@H]1O [VANCOMYCIN] | 6 h | 0.9 | 1 µg/mL (≈ 0.69 µM)
